# Test results: a melting point compilation (Tetko et al.)
row,SMILES,melting point [°C]
1,CCN1CCN(c2ccc(Cl)cc2N)CC1,110 to 112
2,O=C(O)c1ccc(I)cc1Cl,159 to 161
3,COc1ccc(C(N)=O)cc1F,169 to 171
4,N#Cc1cnoc1N,143 to 145
5,Cn1cc(CO)nn1,29 to 31
6,CNC(=O)c1cccc(N)c1C,178 to 180
7,O=C(O)C(Oc1ccc(Cl)cc1)c1ccccc1 (centres undefined),161 to 163
8,COc1ccc(C(N)=NO)cc1OC,164 to 166
9,COC(=O)c1cc(N)ccc1C,38 to 40
10,Cc1nc(C2CCCC2)sc1C(=O)O,185 to 187
11,Nc1cc2c(cc1NC(=O)c1cccs1)OCCO2,178 to 180
12,O=C(O)C1CCCCS1(=O)=O (centres undefined),166 to 168
13,Cc1cc(C)cc(-n2nc(C)cc2N)c1,95 to 97
14,Cc1cccc(COc2ccccc2C(=O)O)c1,155 to 157
15,Nc1cccc(-n2cc[nH]c2=O)c1,155 to 157
16,O=C(O)CCC(=O)N1CCC(O)CC1,121 to 123
17,Cn1ncnc1N,180 to 182
18,COc1ccc(S(N)(=O)=O)cc1Br,139 to 141
19,O=c1cc(CCl)occ1O,166 to 168
20,O=c1ccn2ncc(Br)c2[nH]1,349 to 351
21,Clc1noc(-c2ccco2)n1,73 to 75
22,Nc1ncccc1OCc1cccc(Cl)c1,84 to 86
23,CS(=O)(=O)CC(=O)c1ccccc1,106 to 108
24,Nc1cccc(Oc2cnccn2)c1,89 to 91

# More lines, now with the values ahead:
row,melting point [°C],SMILES
1,137 to 139,CN(C)C(=O)c1ccc(Cl)nn1
2,195 to 197,O=C(O)/C=C/c1cccc(-c2ccccc2)c1
3,59 to 61,Nc1ccnn1CC1CCCCC1
4,38 to 40,Cc1ccccc1C=NO
5,63 to 65,O=C(O)C1CC1c1ccccc1OC(F)F (centres undefined)
6,68 to 70,CC(C)(C(=O)O)c1cccc(Br)c1
7,69 to 71,O=C(NC=C(Cl)Cl)c1ccc(F)cc1
8,205 to 207,Cc1ccc(N)c(-c2nc(C3CC3)n[nH]2)c1
9,254 to 257,COc1ccc(C(=O)N2CCC(C(=O)O)CC2)c2ccccc12
10,268 to 272,Nc1nc(=O)cc[nH]1
11,207 to 209,CNC(=O)c1ccc(NC)c([N+](=O)[O-])c1
12,149 to 151,CCOc1ccc(F)c(C(=O)O)c1F
13,187 to 189,O=C(O)c1ccccc1C(=O)c1ccc(Cl)c(Cl)c1
14,115 to 117,CNC(=O)Cn1nc(N)cc1C
15,155 to 157,COc1cccc(C(N)=O)c1O
16,139 to 141,COc1ccc(S(N)(=O)=O)cc1[N+](=O)[O-]
17,92 to 94,O=Cc1c(Cl)cccc1OCc1ccccc1Cl
18,49 to 51,CCC(C)c1csc(NC)n1 (centres undefined)

row,melting point [°C],SMILES
1,254 to 256,O=C(O)c1ccc(NS(=O)(=O)c2ccc(Cl)c(Cl)c2)cc1
2,169 to 171,O=C(O)CN1CCCCC1=O
3,129 to 131,CCC(Nc1c([N+](=O)[O-])c(C)nn1C)C(=O)O (centres undefined)
4,104 to 106,CCOC(=O)CC(=O)CN1C(=O)c2ccccc2S1(=O)=O
5,312 to 314,O=C(O)c1cccc(-n2[nH]c(=O)ccc2=O)c1
6,224 to 226,O=C(O)c1cc(Cl)cc2cccnc12
7,137 to 139,Cc1ccc(Cl)c(OC(C)C(=O)O)c1 (centres undefined)
8,75 to 77,CCOC(=O)Cc1nc(-c2ccc(OC)c(OC)c2)no1
9,123 to 125,N#Cc1ccc(S(=O)(=O)NCC2CCCO2)cc1 (centres undefined)
10,70 to 75,Nc1cc(C(F)(F)F)ccc1NCc1ccccc1
11,243 to 245,Nc1nnc(-c2ccccc2)o1
12,159 to 161,O=C(O)CSc1nc2ccccc2s1
13,36 to 38,CC1(C)CCCC(C)(C)N1O
14,146 to 148,O=C(O)c1sc(C2CC2)nc1C(F)(F)F
15,43 to 45,CC(C)NC(=O)CN1CCCNCC1
16,178 to 180,O=C(CCl)c1ccc2c(c1)CCCN2C(=O)c1ccccc1
17,105 to 107,O=C(O)C(=O)c1ccc(Br)cc1
